Laboratory results taken from the supplement of paper PMC10307832.

Columns and labels:
Assay in all cases: relative viability (nuclei count vs DMSO), 5 days (fraction); higher = more cells survive
Masitinib + Pemetrexed = compound: Cc1ccc(NC(=O)c2ccc(CN3CCN(C)CC3)cc2)cc1Nc1nc(-c2cccnc2)cs1 [Masitinib] + Nc1nc2[nH]cc(CCc3ccc(C(=O)N[C@@H](CCC(=O)O)C(=O)O)cc3)c2c(=O)[nH]1 [Pemetrexed] (partner 0.2 µM)
In short: (§1)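 Relative viability divides the nuclei count in treated wells by that in vehicle wells. Lung cancer cell lines were seeded in 1536-well plates, dosed by pin tool the next day, and fixed and stained after 5 days in one step with final 0.05% Triton X-100, 1% formaldehyde and 1 ug/ml Hoechst. Dosing was a single drug or a fixed anchor-drug dose plus five library-drug doses (not always all listed) in √10 steps, and values are medians of duplicate plates imaged at 4×.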

[1] = compound: CC1=CC(=CC=C1)NC2=NC(=CS2)C3=CC=NC=C3 + COc1cccc2cc(-c3nc([C@H]4CC[C@H](C(=O)O)CC4)n4ncnc(N)c34)[nH]c12 [OSI-027] (partner 0.5 µM)
In short: as §1

Masitinib = compound: Cc1ccc(NC(=O)c2ccc(CN3CCN(C)CC3)cc2)cc1Nc1nc(-c2cccnc2)cs1 [Masitinib]
In short: (§2)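 Following overnight incubation at 37 °C, lung cancer cell lines in 1536-well plates were pinned with five library-drug doses (not always all listed) in √10 steps on vehicle-anchored plates. The cells then spent 5 days without medium change before a combined fix, permeabilisation and Hoechst stain, 4× imaging and MetaXpress nuclear counts. Viability is the treated-to-vehicle ratio of nuclei, taken as the median across plates. Only plates with control CV below 25% and at least one doubling passed.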

[2] = compound: CC1=CC(=CC=C1)NC2=NC(=CS2)C3=CC=NC=C3
In short: as §2

| Cell Line | relative viability (Masitinib + Pemetrexed; first compound 0.01 µM) | relative viability (Masitinib + Pemetrexed; first compound 0.03162 µM) | relative viability (Masitinib + Pemetrexed; first compound 0.1 µM) | relative viability (Masitinib + Pemetrexed; first compound 0.3162 µM) | relative viability (Masitinib + Pemetrexed; first compound 1 µM) | relative viability ([1]; first compound 0.08 µM) | relative viability ([1]; first compound 0.253 µM) | relative viability ([1]; first compound 0.8 µM) | relative viability ([1]; first compound 2.53 µM) | relative viability ([1]; first compound 8 µM) | relative viability (Masitinib; 0.01 µM) | relative viability (Masitinib; 0.03162 µM) | relative viability (Masitinib; 0.1 µM) | relative viability (Masitinib; 0.3162 µM) | relative viability (Masitinib; 1 µM) | relative viability ([2]; 0.08 µM) | relative viability ([2]; 0.253 µM) | relative viability ([2]; 0.8 µM) | relative viability ([2]; 2.53 µM) | relative viability ([2]; 8 µM) |
| --- | --- | --- | --- | --- | --- | --- | --- | --- | --- | --- | --- | --- | --- | --- | --- | --- | --- | --- | --- | --- |
| PC-14 | 0.137 | 0.144 | 0.13 | 0.12 | 0.141 | 0.712 | 0.833 | 0.795 | 0.826 | 0.702 | 0.916 | 0.943 | 1.01 | 1.01 | 1.01 | 0.94 | 0.899 | 0.943 | 0.917 | 0.766 |
| RERF-LC-KJ | 0.475 | 0.522 | 0.44 | 0.535 | 0.459 | 0.512 | 0.572 | 0.569 | 0.415 | 0.37 | 0.922 | 0.943 | 1.03 | 0.963 | 0.829 | 0.945 | 0.91 | 0.834 | 0.751 | 0.714 |
| SK-LU-1 | 0.982 | 1 | 1.06 | 0.919 | 1.03 | 0.32 | 0.374 |  | 0.348 | 0.273 | 1.05 | 1.05 | 1.13 | 1.24 | 1.02 | 0.996 | 1.03 | 0.702 | 1.1 | 0.968 |
| SK-MES-1 | 0.844 | 0.924 | 0.873 | 0.877 | 0.967 | 0.517 | 0.484 | 0.549 | 0.714 | 0.511 | 0.923 | 0.945 | 1.04 | 0.881 | 0.99 | 0.815 | 0.82 | 0.804 | 0.922 | 0.861 |
| SW 900 | 0.462 | 0.47 | 0.451 | 0.478 | 0.452 | 0.443 | 0.539 | 0.549 | 0.356 | 0.355 | 0.854 | 0.881 | 0.778 | 0.629 | 0.7 | 0.708 | 0.774 | 0.808 | 0.487 | 0.514 |
| SW 1573 | 0.808 | 0.942 | 0.854 | 0.873 | 0.92 | 0.569 | 0.593 | 0.723 | 0.561 | 0.536 | 1.08 | 0.945 | 1.1 | 1.02 | 0.974 | 0.989 | 0.945 | 1.08 | 0.962 | 0.909 |
